Source: US8541373B2, “BChE albumin fusions for the treatment of cocaine abuse” (priority 2009, dated 2013)
“And” between values parts separate entries of the source, which are not always exact repeats. Equal entries are not always repeated.

Experiments:
[1] = system: cocaine subjective effects; assay: Clinical study: subjective effects of cocaine (visual analogue scale); format: in vivo, human; conditions: humans
Description: Subjective effects are measured using a computerized (21 CFR 11 validated) visual analogue scale (VAS). The time points for collection of subjective effects match with those for cocaine blood samples. The following set of VAS are: Drug Liking, Take Drug Again, Overall Drug Liking, High, Good Effects, Bad Effects, Feeling Rush, Desire for Cocaine, Feeling Anxious, Over-Stimulated, and Any Drug Effects.
PD sampling timepoints of VAS parameters after each cocaine dose are as follows: pre-dose, 2, 5, 10, 15, 30, 45, 60, 90, and 120 minutes post dose.

[2] = Cardiovascular and respiratory safety pharmacology of AlbuBChE alone (telemetry); conditions: 15 mg/kg IM
Description: Prior to the start of the study, the monkeys were surgically instrumented with telemetry transmitters and vascular access ports. The following CV parameters were monitored: systolic pressure, diastolic pressure, mean arterial blood pressure, mean heart rate and mean rate-pressure product. Body temperatures changes were also monitored.
Study Group 1 (3 males and 3 females), served as a control group for testing the effect of AlbuBChE alone compared to its vehicle. Monkeys were administered (IM) with the control article AlbuBChE formulation buffer on Study Days (SDs) 1 and 4. Three hours post formulation buffer administration respiratory and cardiovascular (CV) parameters were recorded, respectively.
A single IM dose of the test article (AlbuBChE at 15 mg/kg) was administered on SD 8 and 11. Three hours after AlbuBChE dosing (corresponding to Tmax of AlbuBChE) CV and respiratory parameters were monitored, respectively.
The physiological responses to test article administration, including blood pressure, heart rate, body temperature, and the electrocardiograph (ECG), were monitored.

[3] = rats; cited from earlier work
[4] = AlbuBChE antibodies and blood level after repeated AlbuBChE injections
From the text: The monkeys trained to self-administer cocaine and also tested on the reinstatement procedure received a total of 4 injections of AlbuBChE. Blood was taken for determination of AlbuBChE antibodies after the first, second and fourth AlbuBChE injections.

cocaine = assay: Plasma cocaine, ecgonine methyl ester and benzoylecgonine after IV cocaine post-AlbuBChE; format: in vivo, Squirrel monkeys; conditions: for Benzoylecgonine Plasma Concentration, Mean / Cocaine Plasma Concentration, Mean / Ecgonine methyl ester plasma concentration (mean): mean n=3
Description: Blood was placed into K2EDTA blood collection tubes with esterase inhibitor (diisopropylfluorophosphate (DFP). Tubes were inverted several times and placed on wet ice upon collection. Samples were centrifuged at 2-8° C. within 45 minutes of collection. The resultant plasma will be recovered and a single 200 μL aliquot of plasma was placed into polypropylene tubes. Plasma samples was frozen over dry ice and stored at approximately −70° C.
The bioanalytical method measured the plasma concentration of cocaine and two of its metabolites: ecgonine methyl ester and benzoylecgonine. Cocaine metabolic pathway is shown in FIG. 9, ecgonine methyl ester metabolite is formed directly from cocaine through the butrylcholine esterase enzyme. As such, this metabolite can be predicted to increase following AlbuBChE administration.
The blood level data were analyzed separately for each metabolite and time point (5 or 30 min). A one-way analysis-of-variance (ANOVA) was performed with follow-up Dunnett tests using the results of monkeys treated with vehicle as the control. The self-administration data were analyzed separately for response rate or injections following either vehicle treatment or AlbuBChE treatment. Control data were included in the analysis by taking the average of the last 3 days for the immediately preceding baseline condition. A within subjects ANOVA was then performed with follow-up tests contrasting days following vehicle or AlbuBChE with the control. For the reinstatement tests, a two-way ANOVA was performed for both response rate and injections, with time post vehicle or AlbuBChE as the within-subjects factor and pretreatment (vehicle or AlbuBChE) as the between subjects factor. Follow-up contrast compared vehicle and AlbuBChE at each time point.

[5] = Animal observations in PK/PD study
[6] = 5 min after cocaine 1 mg/kg IV given 2 hr post-AlbuBChE 5 mg/kg IM, individual monkeys 547, 3434, 53B
[7] = 5 min after cocaine 1 mg/kg IV given 72 hr post-AlbuBChE 5 mg/kg IM, individual monkeys
[8] = 5 min after cocaine 1 mg/kg IV given 96 hr post-AlbuBChE 5 mg/kg IM, individual monkeys
[9] = 5 min after cocaine 1 mg/kg IV, 2 hr post-AlbuBChE 5 mg/kg IM
[10] = 5 min after cocaine 1 mg/kg IV, 72 hr post-AlbuBChE 5 mg/kg IM
[11] = 5 min after cocaine 1 mg/kg IV, 96 hr post-AlbuBChE 5 mg/kg IM
[12] = 30 min after cocaine 1 mg/kg IV given 2 hr post-AlbuBChE 5 mg/kg IM, individual monkeys
[13] = 30 min after cocaine 1 mg/kg IV given 72 hr post-AlbuBChE 5 mg/kg IM, individual monkeys
[14] = 30 min after cocaine 1 mg/kg IV given 96 hr post-AlbuBChE 5 mg/kg IM, individual monkeys
[15] = 30 min after cocaine 1 mg/kg IV, 2 hr post-AlbuBChE 5 mg/kg IM
[16] = 30 min after cocaine 1 mg/kg IV, 72 hr post-AlbuBChE 5 mg/kg IM
[17] = 30 min after cocaine 1 mg/kg IV, 96 hr post-AlbuBChE 5 mg/kg IM

AlbuBChE
VAS Bad Effects ([1]; following cocaine exposure): reduces the feeling of “bad effects”
Duration of decreased desire to use cocaine ([1]; single administration): up to one week
VAS Any Drug Effects ([1]; vs placebo): reduces the reporting of “any drug effects.”
VAS Desire for Cocaine ([1]; vs placebo): decreases the desire for cocaine
VAS Drug Liking ([1]; vs placebo): decreases cocaine liking
VAS Feeling Anxious ([1]; vs placebo): reduces feelings of anxiousness
VAS Feeling Rush ([1]; vs placebo): decreases subjective feeling of “rush”
VAS Good Effects ([1]; vs placebo): decreases the subjective feeling of “good effects”
VAS High ([1]; vs placebo): decreases the “high”
VAS Over-Stimulated ([1]; vs placebo): reduces feelings of being over-stimulated
VAS Overall Drug Liking ([1]; vs placebo): decreases overall drug liking
VAS Take Drug Again ([1]; vs placebo): decreases the desire to take cocaine again
Changes in recorded CV parameters and body temperature vs formulation buffer [2]: did not produce any significant changes
Survival ([2]; with or without cocaine): All animals survived
Side effects of intravenous administration [3]: modest increase in blood pressure and mild lethargy
AlbuBChE antibody levels ([4]; following the first 2 injections, level of detection titer 20): below the level of detection
AlbuBChE antibody titer, individual monkeys ([4]; following the fourth injection): 21 and 43 and 643
Concentration of AlbuBChE in the blood, individual monkeys ([4]; one week following the AlbuBChE injection (fourth)): 27 ng/mL and 55 ng/mL and 53 ng/mL
Ecgonine methyl ester concentration increase over control (cocaine; 5 mg/kg IM, 2 hr post-AlbuBChE, 5 min after cocaine): ~40 fold
Cocaine concentration relative to control (cocaine; 5 mg/kg IM, cocaine 1 mg/kg IV 96 hr post-AlbuBChE): 60 % of control
Benzoylecgonine Plasma Concentration (cocaine; [6]): 4.83 ng/mL and 23.3 ng/mL and 20.1 ng/mL
Cocaine Plasma Concentration (cocaine; [6]): 0.575 ng/mL and 20.0 ng/mL and 22.4 ng/mL
Ecgonine Methyl Ester Plasma Concentration (cocaine; [6]): 109 ng/mL and 417 ng/mL and 333 ng/mL
Benzoylecgonine Plasma Concentration (cocaine; [7]): 9.93 ng/mL and 41.7 ng/mL and 28.8 ng/mL
Cocaine Plasma Concentration (cocaine; [7]): 41.3 ng/mL and 176 ng/mL and 104 ng/mL
Ecgonine Methyl Ester Plasma Concentration (cocaine; [7]): 29.3 ng/mL and 101 ng/mL and 73.2 ng/mL
Benzoylecgonine Plasma Concentration (cocaine; [8]): 15.5 ng/mL and 36.2 ng/mL and 26.3 ng/mL
Cocaine Plasma Concentration (cocaine; [8]): 97.9 ng/mL and 191 ng/mL and 112 ng/mL
Ecgonine Methyl Ester Plasma Concentration (cocaine; [8]): 40.5 ng/mL and 72.3 ng/mL and 35.8 ng/mL
Benzoylecgonine Plasma Concentration, Mean (cocaine; [9]): 16.1 ng/mL
Cocaine Plasma Concentration, Mean (cocaine; [9]): 14.3 ng/mL
Ecgonine methyl ester plasma concentration (mean) (cocaine; [9]): 286 ng/mL
Benzoylecgonine Plasma Concentration, Mean (cocaine; [10]): 26.8 ng/mL
Cocaine Plasma Concentration, Mean (cocaine; [10]): 107 ng/mL
Ecgonine methyl ester plasma concentration (mean) (cocaine; [10]): 67.8 ng/mL
Benzoylecgonine Plasma Concentration, Mean (cocaine; [11]): 26.0 ng/mL
Cocaine Plasma Concentration, Mean (cocaine; [11]): 134 ng/mL
Ecgonine methyl ester plasma concentration (mean) (cocaine; [11]): 49.5 ng/mL
Benzoylecgonine Plasma Concentration (cocaine; [12]): 11.1 ng/mL and 20.8 ng/mL and 10.9 ng/mL
Cocaine Plasma Concentration (cocaine; [12]): 0.581 ng/mL and 0.115 ng/mL and 0.261 ng/mL
Ecgonine Methyl Ester Plasma Concentration (cocaine; [12]): 252 ng/mL and 314 ng/mL and 218 ng/mL
Benzoylecgonine Plasma Concentration (cocaine; [13]): 20.7 ng/mL and 33.4 ng/mL and 21 ng/mL
Cocaine Plasma Concentration (cocaine; [13]): 65.0 ng/mL and 57.9 ng/mL and 44.9 ng/mL
Ecgonine Methyl Ester Plasma Concentration (cocaine; [13]): 61.3 ng/mL and 112 ng/mL and 81.7 ng/mL
Benzoylecgonine Plasma Concentration (cocaine; [14]): 18.9 ng/mL and 37.6 ng/mL and 21.5 ng/mL
Cocaine Plasma Concentration (cocaine; [14]): 62.9 ng/mL and 75.6 ng/mL and 67.1 ng/mL
Ecgonine Methyl Ester Plasma Concentration (cocaine; [14]): 25.7 ng/mL and 76.8 ng/mL and 45.2 ng/mL
Benzoylecgonine Plasma Concentration, Mean (cocaine; [15]): 14.3 ng/mL
Cocaine Plasma Concentration, Mean (cocaine; [15]): 0.319 ng/mL
Ecgonine methyl ester plasma concentration (mean) (cocaine; [15]): 261 ng/mL
Benzoylecgonine Plasma Concentration, Mean (cocaine; [16]): 25.0 ng/mL
Cocaine Plasma Concentration, Mean (cocaine; [16]): 55.9 ng/mL
Ecgonine methyl ester plasma concentration (mean) (cocaine; [16]): 85.0 ng/mL
Benzoylecgonine Plasma Concentration, Mean (cocaine; [17]): 26.0 ng/mL
Cocaine Plasma Concentration, Mean (cocaine; [17]): 68.5 ng/mL
Ecgonine methyl ester plasma concentration (mean) (cocaine; [17]): 49.2 ng/mL
Cocaine blood levels vs vehicle control (cocaine; 2 hours following AlbuBChE, 5- and 30-min time points): significantly reduced
Blood levels of BZ vs vehicle control (cocaine; 2 hr following AlbuBChE): not significant
Blood levels of EME vs vehicle control (cocaine; 2 hr following AlbuBChE, 5- and 30 min time point): elevated
Cocaine blood levels vs vehicle control (cocaine; 72 hours following AlbuBChE, 30-min post cocaine): significantly below control levels
Blood levels of EME vs vehicle control (cocaine; 72 hours following AlbuBChE, 30 min time point): significantly elevated
Cocaine blood levels vs vehicle control (cocaine; 96 hours following AlbuBChE, 5 or 30 min time point): not significant
Duration of decreased amount of cocaine in the blood (cocaine; Squirrel monkeys, 5 mg/kg): at least 72 hours
Cocaine-related observations (hyperactivity, increased respiratory rate with abdominal breathing) ([5]; pre-treatment 0.2 to 5 mg/kg, cocaine 1 mg/kg): not observed for five days
Clinical or cageside observations associated with AlbuBChE ([5]; single IM 0.2, 1 or 5 mg/kg): no clinical or cageside observations
Deaths during the study ([5]; single IM 0.2, 1 or 5 mg/kg): no deaths
Tolerability ([5]; single IM dose of 0.2, 1 or 5 mg/kg): well tolerated
